Data on 25 compounds can be found in patent US12692247B2, “Phenyl- and pyridopyrazole derivatives as inhibitors of DDR1” (Redx Pharma Limited, priority 2021, dated 2026).

Bounds are passed on as bounds.

For one assay, the target named is T1, Recombinant human DDR2 (Homo sapiens, UniProt Q16832).
T1 construct: DDR2 (1.75 nM; aa427-855 containing a GST tag)
T1 sequence (Q16832 427-855): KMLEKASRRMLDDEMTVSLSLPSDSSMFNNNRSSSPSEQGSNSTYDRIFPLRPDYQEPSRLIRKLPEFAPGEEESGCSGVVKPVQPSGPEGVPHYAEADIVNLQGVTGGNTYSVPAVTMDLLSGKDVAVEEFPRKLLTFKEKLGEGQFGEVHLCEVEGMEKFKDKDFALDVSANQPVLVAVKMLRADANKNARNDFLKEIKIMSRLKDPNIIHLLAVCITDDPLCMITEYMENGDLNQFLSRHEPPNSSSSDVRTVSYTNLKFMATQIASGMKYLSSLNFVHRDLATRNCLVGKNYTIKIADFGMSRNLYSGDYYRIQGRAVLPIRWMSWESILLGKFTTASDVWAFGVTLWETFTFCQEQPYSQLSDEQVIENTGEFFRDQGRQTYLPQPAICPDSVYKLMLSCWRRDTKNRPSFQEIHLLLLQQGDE
The experiment in a line: LanthaScreen Eu Kinase Binding Assay, DDR2. The following applies: recombinant human DDR2 (1.75 nM; aa427-855, GST tag), Kinase Tracer 178 10 nM, time-resolved fluorescence, at least two independent replicates; read-out: DDR2 pIC50 (converted). Here is the method:
(§1) DDR1 and DDR2 Biochemical Assay Method
(§2) The capacity of compounds to bind to DDR1 and DDR2 was quantified using a LanthaScreen Eu Kinase Binding Assay. Recombinant human DDR1 (2.5 nM; aa440-876 containing a GST tag) and DDR2 (1.75 nM; aa427-855 containing a GST tag) were diluted in assay buffer (50 mM HEPES pH7.3, 10 mM MgCl2, 1 mM EGTA and 0.01% Tween) with various concentrations of compound in a 384-well plate and a volume of 5 uL. After a 30-minute incubation at room temperature, 2.5 uL of Eu-anti GST antibody (diluted to 1 nM in assay buffer) plus Kinase Tracer 178 (diluted in assay buffer to 5 nM for DDR1 and 10 nM for DDR2) were added to the plate. Following 60-minute incubation at room temperature, time-resolved fluorescence was measured on a BMG Labtech PHERAstar plate reader. DMSO (1%) and reference compound (1 μM) were used to generate the Max and Min assay signals, respectively. Data was analysed using a four-parameter logistic model to calculate IC50 values, with at least two independent replicates were performed for each compound.
In general terms: Time-resolved FRET reads energy transfer from a long-lived donor to a nearby acceptor.

In the next assay the target is T2, Recombinant human DDR1 (Homo sapiens, UniProt Q08345).
T2 construct: Recombinant human DDR1 (2.5 nM; aa440-876 containing a GST tag)
The experiment in a line: LanthaScreen Eu Kinase Binding Assay, DDR1. The following applies: recombinant human DDR1 (2.5 nM; aa440-876, GST tag), Kinase Tracer 178 5 nM, time-resolved fluorescence, at least two independent replicates; read-out: DDR1 pIC50 (converted). Here is the method:
as §1, §2

T2 sequence (Q08345 440-876 isoform Q08345-2): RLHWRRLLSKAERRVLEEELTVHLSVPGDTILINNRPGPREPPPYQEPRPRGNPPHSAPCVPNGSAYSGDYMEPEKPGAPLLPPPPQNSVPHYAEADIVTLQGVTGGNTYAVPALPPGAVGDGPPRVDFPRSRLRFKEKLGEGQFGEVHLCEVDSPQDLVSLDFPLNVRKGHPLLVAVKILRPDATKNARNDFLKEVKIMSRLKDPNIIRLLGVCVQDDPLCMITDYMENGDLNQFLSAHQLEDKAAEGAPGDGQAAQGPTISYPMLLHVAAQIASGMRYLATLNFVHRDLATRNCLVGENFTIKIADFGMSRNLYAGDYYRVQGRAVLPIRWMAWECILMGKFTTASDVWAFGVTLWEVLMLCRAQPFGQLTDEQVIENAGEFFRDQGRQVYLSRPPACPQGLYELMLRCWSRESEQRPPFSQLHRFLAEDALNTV

Take `C[C@@H]1COC[C@H](C)N1C(=O)Cn1ccc2cccc(Nc3ccc4c(cnn4C)c3)c2c1=O` [Example 96, 2-{2-[(3R,5S)-3,5-dimethylmorphin-4-yl]-2-oxoethyl}-8-[(1-methyl-1H-indazol-5-yl)amino]-1,2-dihydroisoquinolin-1-one]: the figures for the IC50 on Recombinant human DDR2 and on Recombinant human DDR1 were at least 1000 nM and 100 to 1000 nM, respectively.
For `Cn1ncc2cc(Nc3cccc4ccn(CC(=O)NCC(F)(F)F)c(=O)c34)cc(C#N)c21` [Example 119, 2-(8-((7-cyano-1-methyl-1H-indazol-5-yl)amino)-1-oxoisoquinolin-2(1H)-yl)-N-(2,2,2-trifluoroethyl)acetamide], the IC50 at Recombinant human DDR2 is at least 1000 nM; on Recombinant human DDR1 it was below 10 nM.
The matching figures for `CN(C)Cc1cccc(NC(=O)Cn2ccc3cccc(Nc4ccc5c(cnn5C)c4)c3c2=O)c1` [Example 104, N-{3-[(dimethylamino)methyl]phenyl}-2-{8-[(1-methyl-1H-indazol-5-yl)amino]-1-oxo-1,2-dihydroisoquinolin-2-yl}acetamide]: 100 to 1000 nM and 10 to 100 nM.
The matching figures for `Cn1ncc2cc(Nc3cccc4ccn(CC(=O)Nc5cncc(C(F)(F)F)c5)c(=O)c34)cnc21` [Example 99, 2-[8-({1-methyl-1H-pyrazolo[3,4-b]pyridine-5-5-yl}amino)1-oxo-1,2-dihydroisoquinolin-2-yl]-N-[5-(trifluoromethyl)pyridine-3-yl]acetamide]: 10 to 100 nM and 10 to 100 nM.
The like results for `Cn1ncc2cc(Nc3cccc4ccn(CC(=O)NC(c5ccccc5)C(F)(F)F)c(=O)c34)ccc21` (centres unmarked) [Example 35, 2-[8-[(1-methylindazol-5-yl)amino]-1-oxo-2-isoquinolyl]-N-(2,2,2-trifluoro-1-phenyl-ethyl)acetamide] were, in that order, 100 to 1000 nM and 10 to 100 nM.
Regarding `Cn1ncc2cc(Nc3cccc4ccn(CC(=O)NC5(C(F)(F)F)CC5)c(=O)c34)ccc21` [Example 21, 2-[8-[(1-methylindazol-5-yl)amino]-1-oxo-2-isoquinolyl]-N-[1-(trifluoromethyl)cyclopropyl]acetamide], the IC50 at Recombinant human DDR2 is 100 to 1000 nM; on Recombinant human DDR1 it was 10 to 100 nM.
`Cn1ncc2cc(Nc3cccc4ccn(CC(=O)NC(C5CC5)C(F)(F)F)c(=O)c34)ccc21` (centres unmarked) [Example 33, N-(1-cyclopropyl-2,2,2-trifluoro-ethly)-2-[8-[(1-methylindazol-5-yl)amino]-1-oxo-2-isoquinolyl]acetamide]: the IC50 was 100 to 1000 nM at Recombinant human DDR2 and 10 to 100 nM at Recombinant human DDR1.
The matching figures for `Cn1ncc2cc(Nc3cccc4ccn(CC(=O)N5CCC[C@H]5C(F)(F)F)c(=O)c34)cnc21` [Example 78, 8-[(1-methylpyrazolo[3,4-b]pyridin-5-yl)amino]-2-[2-oxo-2-[(2S)-2-(trifluoromethyl)pyrrolidin-1-yl]ethyl]isoquinolin-1-one]: 100 to 1000 nM and 10 to 100 nM.
The matching figures for `O=C(Cn1ccc2cccc(Nc3ccc4[nH]ncc4c3)c2c1=O)NCC(F)(F)F` [Example 1, 2-[8-(1H-indazol-5-ylamino)-1-oxo-2-isoquinolyl]-N-(2,2,2-trifluoroethyl)acetamide]: at least 1000 nM and 10 to 100 nM.
The like results for `C[C@H](NC(=O)Cn1ccc2cccc(N(C)c3ccc4c(cnn4C)c3)c2c1=O)C(F)(F)F` [Example 143, 2-[8-[methyl-(1-methylindazol-5-yl)amino]-1-oxo-2-isoquinolyl]-N-[(1S)-2,2,2-trifluoro-1-methyl-ethyl]acetamide] were, in that order, 100 to 1000 nM and 10 to 100 nM.
`Cn1ncc2cc(Nc3cccc4ccn(CC(=O)NCC(F)(F)F)c(=O)c34)cc(C(N)=O)c21` [Example 125, 1-Methyl-5-[[1-oxo-2-[2-oxo-2-(2,2,2-trifluoroethylamino)ethyl]-8-isoquinolyl]amino]indazole-7-carboxamide]: the figures for the IC50 at Recombinant human DDR2 and at Recombinant human DDR1 were at least 1000 nM and 100 to 1000 nM, respectively.
The like results for `CN(C)CCc1ccc(NC(=O)Cn2ccc3cccc(Nc4ccc5c(cnn5C)c4)c3c2=O)cc1C(F)(F)F` [Example 133, N-[4-[(dimethylamino)ethyl]-3-(trifluoromethyl)phenyl]-2-[8-[(1-methylindazol-5-yl)amino]-1-oxo-2-isoquinolyl]acetamide] were, in that order, 100 to 1000 nM and 10 to 100 nM.
As for `CN1CCC(NC(=O)Cn2ccc3cccc(Nc4ccc5c(cnn5C)c4)c3c2=O)CC1` [Example 18, 2-[8-[(1-methylindazol-5-y)amino]-1-oxo-2-isoquinolyl]-N-(1-methyl-4-piperidyl)acetamide], the IC50 at Recombinant human DDR2 and at Recombinant human DDR1 was at least 1000 nM throughout.
Regarding `Cn1ncc2cc(Nc3cccc4ccn(CC(=O)Nc5cncc(C(F)(F)F)c5)c(=O)c34)ccc21` [Example 31, 2-[8-[(1-methylindazol-5-yl)amino]-1-oxo-2-isoquinolyl]-N-[5-(trifluromethyl)-3-pyridyl]acetamide], the IC50 on Recombinant human DDR2 and at Recombinant human DDR1 was below 10 nM throughout.
Consider `Cn1ncc2cc(Nc3cccc4ccn(CC(=O)N5CCC[C@H]5C(F)F)c(=O)c34)ccc21` [Example 131, 2-[2-[(2S)-2-(difluoromethyl)pyrrolidin-1-yl]-2-oxo-ethyl]-8-[(1-methylindazol-5-yl)amino]isoquinolin-1-one], for which the IC50 is 10 to 100 nM on Recombinant human DDR2 and below 10 nM on Recombinant human DDR1.
The matching figures for `Cn1ncc2cc(Nc3cccc4ccn(CC(=O)NC(CO)C(F)(F)F)c(=O)c34)ccc21` (centres unmarked) [Example 50, 2-[8-[(1-methylindazol-5-yl)amino]-1-oxo-2-isoquinolyl]-N-[2,2,2-trifluoro-1-(hydroxymethyl)ethyl)acetamide]: at least 1000 nM and at least 1000 nM.
The like results for `Cn1ncc2cc(Nc3cccc4ccn(CC(=O)N5CCOC(C(F)(F)F)C5)c(=O)c34)ccc21` (centres unmarked) [Example 43, 8-[(1-methylindazol-5-yl)aminio]-2-[2-oxo-2-[2-(trifluoromethyl)morpholin-4-yl]ethyl]isoquinolin-1-one] were, in that order, at least 1000 nM and 10 to 100 nM.
Regarding `Cn1ncc2cc(Nc3cccc4ccn(CC(=O)Nc5ccncc5)c(=O)c34)ccc21` [Example 26, 2-[8-[(1-methylindazol-5-yl)amino]-1-oxo-2-isoquinolyl]-N-(4-pyridyl)acetamide], the IC50 at Recombinant human DDR2 and at Recombinant human DDR1 was at least 1000 nM throughout.
`Cn1ncc2cc(Nc3cccc4ccn(CC(=O)N5CCCC[C@H]5C(F)(F)F)c(=O)c34)ccc21` [Example 61, 8-[(1-methylindazol-5-yl)amino]-2-[2-oxo-2-[(2S)-2-(trifluoromethyl)-1-piperidyl]ethyl]isoquinolin-1-one]: the IC50 on Recombinant human DDR2 is 10 to 100 nM; at Recombinant human DDR1, below 10 nM.
In the case of `Cn1ncc2cc(Nc3cccc4ccn(CC(=O)Nc5cc(C(F)(F)F)no5)c(=O)c34)ccc21` [Example 48, 2-[8-[(1-methylindazol-5-yl)amino]-1-oxo-2-isoquinolyl]-N-[3-(trifluoromethyl)isoxazol-5-yl]acetamide], the IC50 on Recombinant human DDR2 and at Recombinant human DDR1 was 10 to 100 nM each time.
Turning to `Cn1cnc(NC(=O)Cn2ccc3cccc(Nc4ccc5c(cnn5C)c4)c3c2=O)c1` [Example 81, N-(1-methylimidazol-4-yl)-2-[8-[(1-methylindazol-5-yl)amino]-1-oxo-2-isoquinolyl]acetamide], the figures for the IC50 on Recombinant human DDR2 and at Recombinant human DDR1 were at least 1000 nM and 10 to 100 nM, respectively.
The matching figures for `Cn1ncc2cc(Nc3cccc4ccn(CC(=O)N5CCCCC5)c(=O)c34)ccc21` [Example 93]: 100 to 1000 nM and 100 to 1000 nM.
The matching figures for `CCNC(=O)Cn1ccc2cccc(Nc3ccc4c(cnn4C)c3)c2c1=O` [Example 14, N-ethyl-2-[8-[(1-methylindazol-5-yl)amino]-1-oxo-2-isoquinolyl]acetamide]: at least 1000 nM and 100 to 1000 nM.
The like results for `COc1ccc(NC(=O)Cn2ccc3cccc(Nc4ccc5c(cnn5C)c4)c3c2=O)cc1` [Example 55, N-(4-methoxyphenyl)-2-[8-[(1-methylindazol-5-yl)amino]-1-oxo-2-isoquinolyl]acetamide] were, in that order, at least 1000 nM and 10 to 100 nM.
On to `CC[C@H](NC(=O)Cn1ccc2cccc(Nc3ccc4c(cnn4C)c3)c2c1=O)C(F)(F)F` [Example 45, 2-[8-[(1-methylindazol-5-yl)amino]-1-oxo-2-isoquinolyl]-N-[(1S)-1-(trifluoromethyl)propyl]acetamide], for which the IC50 on Recombinant human DDR2 and on Recombinant human DDR1 was 10 to 100 nM in each case.
